According to US10106577B2, “Agonists of neurotrophin receptors and their use as medicaments” (BIONURE FARMA, S.L., priority 2010, dated 2018):
“Also recorded” adds a separate entry of the source.

What was measured:
[1] = test system: TrkB and p75 on SH-SY5Y cells; experiment: Cytometry binding assay, competition BDNF/G79-FITC in SH-SY5Y; set-up: species or system human; conditions: growing concentrations of BDNF
Protocol: (§1) In order to assess the binding of G79 to the TrkA (PC12 cells) and TrkB receptors (SH-SY5Y), we performed competitive binding assays by flow cytometry. In order to assess the binding competition between p75 and TrkA, PC12 cells expressing both TrkA and p75 receptors were cultivated in normal growth medium. After detaching cells by trypsin solution, 200,000 cells/well were added to tubes for the following incubations. One tube contains control untreated cells. In the other tubes, cells were pre-incubated for 45 minutes with different concentrations of NGF (0-10-20-50-100 ng/ml), that can directly bind both TrkA and p75 receptors, blocking the possible binding of G79 if it competes for the same receptors. Then, without washing the cells, G79 conjugated with FITC fluorescence (100 ng/ml) was added and so incubated the cells for 1 hour. Samples were read in a cytometer (FCAScan).
(§2) To detect the binding separately on both receptors, a prior incubation of cells (before NGF incubation) with blocking antibodies was made. The cells were preincubated for 1 hour with blocking antibody anti-p75 (1:100; Chemicon Int.), to detect the binding on TrkA, or blocking antibody anti-TrkA (1:200; AbCam) to detect the binding on p75. […] All the results are expressed as mean channel fluorescence (MCF), which is a measure of the cell surface fluorescence produced by G79-FITC binding.

[2] = target: T1, p75 receptor (Rattus norvegicus, UniProt P07174); experiment: Cytometry binding assay in PC12 with anti-TrkA antibody; conditions: cells pre-incubated with anti-TrkA antibody; growing NGF
T1 construct: PC12 cells expressing both TrkA and p75 receptors were cultivated in normal growth medium; endogenous in cells; host or cells: PC12
T1 sequence (P07174 30-425): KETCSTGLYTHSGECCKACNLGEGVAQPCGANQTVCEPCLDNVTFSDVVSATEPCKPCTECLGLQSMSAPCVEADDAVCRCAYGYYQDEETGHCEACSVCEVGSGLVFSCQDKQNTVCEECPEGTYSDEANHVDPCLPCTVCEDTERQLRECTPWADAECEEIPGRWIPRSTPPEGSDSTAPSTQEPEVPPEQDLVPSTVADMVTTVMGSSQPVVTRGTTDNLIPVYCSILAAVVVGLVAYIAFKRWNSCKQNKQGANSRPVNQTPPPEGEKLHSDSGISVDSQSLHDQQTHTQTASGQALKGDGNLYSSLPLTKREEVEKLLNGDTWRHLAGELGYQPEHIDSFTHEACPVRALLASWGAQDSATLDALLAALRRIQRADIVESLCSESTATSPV
Protocol: as §1, §2

[3] = test system: PC12 cells; experiment: Receptor activation assay (PC12 differentiation with anti-TrkA antibody); assay type: cell-based
Protocol: The hypothesis that G79, G80, and G81 can act through the binding to the extracellular portion of TrkA (binding site) and activate the tyrosine kinase receptor was tested by treating the PC12 cells with the small chemicals in combination with the antibody anti-TrkA or the K252a, a tyrosine kinase inhibitor. For this purpose PC12 cells were plated into collagen-coated 24-wells plates with 2.5% FBS and after 72 hrs were incubated with the small molecules alone or in combination with anti-TrkA antibody (AbCam, 1:2000) or K252a. NGF (100 ng/ml) was used as control and added alone or in combination with anti-TrkA antibody or K252a. The number of differentiated cells was evaluated after three days of treatment. The cell count was done in three randomly selected fields with 100 cells.

[4] = test system: SH-SY5Y cells; experiment: Parkinson's disease in vitro model (MPTP stress, MTT); assay type: cell-based, human; conditions: MPTP 100 μM, 24 hrs; pre-treated 3 hours; BDNF 20 ng/ml
Protocol: The human neuroblastoma cell line SH-SY5Y was maintained in culture with 50% Ham's F12 medium and 50% EMEM medium, supplemented with 10% FBS, […] L-glutamine and 1% penicillin/streptomycin. The cell culture was maintained in a humidified atmosphere of 95% air and CO2 at 37° C.
The SH-SY5Y cells after differentiation to neuronal phenotype with retinoic acid, were pre-treated for 3 hours with the test compounds at different concentrations (20 ng/ml, 100 ng/ml, 2 μg/ml, 20 μg/ml and 50 μg/ml) or BDNF (20 ng/ml) as a positive control. Then 1-methyl-4-phenyl-1,2,3,6-tetrahydropyridine (MPTP) (100 μM) was added and incubated for 24 hrs. The number of surviving cells was determined the day after by 3-(4,5-dimethylthiazol-2-yl)-2,5-diphenyltetrazolium bromide (MTT) assay.

[5] = in combination with anti-TrkA antibody (1:2000)

| Compound | competition with BDNF for binding (MCF of G79-FITC) [1] | binding on p75 (MCF of G79-FITC) [2] | number of differentiated cells [3, 5] | number of differentiated cells ([3]; treatment alone) | protection of neuronal cells against MPTP (surviving cells, MTT) [4] |
| --- | --- | --- | --- | --- | --- |
| CC(C)CN(CC(=O)N(CCCN1CCCC1=O)CC(N)=O)C(=O)CNCCc1ccccc1F [Compound G79, [N-(2-(2′-Fluorophenyl)ethyl)glycyl]-[N-(2-methylpropyl)glycyl]-N-[3-(2′-oxopyrrolidinyl)propyl]glycinamide] | competes with BDNF to one of its receptors | could bind on p75 receptor | 19.6±8.1 | 11.5±2.8 | Prevent Neuronal Death; also recorded: significant protection of neuronal cells |
| CC(C)CN(CC(=O)N(CCc1ccc(S(N)(=O)=O)cc1)CC(N)=O)C(=O)CNCCc1ccccc1F [Compound G80, [N-(2-(2′-Fluorophenyl)ethyl)glycyl]-[N-(2-methylpropyl)glycyl]-N-[2-(4′-sulfamoylphenyl)ethyl]glycinamide] | – | – | 14.6±4.1 | 15.1±6.3 | Prevent Neuronal Death |
| CC(C)CN(CC(=O)N(CCc1ccc(S(N)(=O)=O)cc1)CC(N)=O)C(=O)CNCCN1CCCC1 [Compound G81, [N-(2-(1-Pyrrolidinyl)ethyl)glycyl]-[N-(2-methylpropyl)glycyl]-N-[2-(4′-sulfamoylphenyl)ethyl]glycinamide] | – | – | 16.5±5.9 | 14.1±3.3 | Prevent Neuronal Death |
